The values that follow come from patent US8791131B2, “Imidazo[1,5]naphthyridine compounds, their pharmaceutical use and compositions” (Pfizer Inc., priority 2008, dated 2014).

Read-outs that look alike come from different tables or passages of the source.

Experiment [1] addresses T1, mTOR (Homo sapiens (Human), UniProt P42345). The experiment can be described thus: biochemical.
The target in a further experiment is PI3-Kα (Mus musculus (Mouse), UniProt P42337). The experiment can be described thus: PI3-Kα biochemical assay (in vitro kinase assay, fluorescence polarization).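 As to all read-outs here: Insect-cell-expressed mouse p110/p85 complex converting PI(4,5)P2, product PI(3,4,5)P3 detected by displacing TAMRA-tagged PI(3,4,5)P3 from Grip1 PH domain, lower polarization means more product, room temperature.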 The following applies: for Ki: read-out: PI3Ka Ki; for PI3Ka Ki: Ki calculated from IC50, [ATP]=30 uM, Km=25 uM.
Experiment [2] deals with PI3-K (phosphorylation of AKT at serine 473) in BT20 cells. As to the kind of experiment: PI3-Kα cellular assay (phospho-AKT Ser473 ELISA in BT20 cells).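 Also: lysates read by ELISA with TMB colour at 450 nm, cells given 0.5% DMSO vehicle serve as positive control and cell-free wells as negative control, duplicate wells per concentration.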 The following applies: Homo sapiens, BT-20, 1 h.
For experiment [3], the target named is T1, mTOR.
Setting [4] is: read-out: S473 pAKT 0.5% FBS IC50 (μM).
[5] abbreviates: read-out: S473 pAKT 10% FBS IC50 (μM).

PI3-Kα, sequence (P42337 whole entry, the tested form may be a part): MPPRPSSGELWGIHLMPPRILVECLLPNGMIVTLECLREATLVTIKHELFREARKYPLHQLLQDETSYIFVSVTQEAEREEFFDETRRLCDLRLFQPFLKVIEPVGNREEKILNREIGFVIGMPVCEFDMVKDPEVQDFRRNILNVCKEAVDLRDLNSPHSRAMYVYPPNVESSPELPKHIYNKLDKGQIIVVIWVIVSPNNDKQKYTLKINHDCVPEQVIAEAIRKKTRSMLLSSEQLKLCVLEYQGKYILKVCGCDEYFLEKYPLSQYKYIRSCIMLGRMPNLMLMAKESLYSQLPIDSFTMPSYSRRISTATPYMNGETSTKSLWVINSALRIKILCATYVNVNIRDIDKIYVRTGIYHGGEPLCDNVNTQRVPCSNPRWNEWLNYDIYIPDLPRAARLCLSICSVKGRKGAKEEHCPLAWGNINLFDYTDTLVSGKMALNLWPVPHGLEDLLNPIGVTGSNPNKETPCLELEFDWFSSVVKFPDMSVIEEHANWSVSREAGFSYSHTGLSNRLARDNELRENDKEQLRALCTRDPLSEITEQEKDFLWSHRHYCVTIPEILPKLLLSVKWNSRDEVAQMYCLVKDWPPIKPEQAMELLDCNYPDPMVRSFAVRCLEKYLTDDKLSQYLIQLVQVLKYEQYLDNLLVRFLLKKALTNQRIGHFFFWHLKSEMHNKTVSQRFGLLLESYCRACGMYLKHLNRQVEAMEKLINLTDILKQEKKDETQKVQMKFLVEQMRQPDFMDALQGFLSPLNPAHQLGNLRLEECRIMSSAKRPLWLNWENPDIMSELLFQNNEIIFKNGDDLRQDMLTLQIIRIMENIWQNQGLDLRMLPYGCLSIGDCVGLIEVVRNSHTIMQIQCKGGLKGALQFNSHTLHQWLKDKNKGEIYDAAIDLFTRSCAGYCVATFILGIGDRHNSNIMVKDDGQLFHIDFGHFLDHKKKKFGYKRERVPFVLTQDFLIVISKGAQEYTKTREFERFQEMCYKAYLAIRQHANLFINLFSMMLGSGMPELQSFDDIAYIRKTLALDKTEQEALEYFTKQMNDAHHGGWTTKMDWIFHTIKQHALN
PI3-Kα, sequence (P26450 whole entry partner, the tested form may be a part): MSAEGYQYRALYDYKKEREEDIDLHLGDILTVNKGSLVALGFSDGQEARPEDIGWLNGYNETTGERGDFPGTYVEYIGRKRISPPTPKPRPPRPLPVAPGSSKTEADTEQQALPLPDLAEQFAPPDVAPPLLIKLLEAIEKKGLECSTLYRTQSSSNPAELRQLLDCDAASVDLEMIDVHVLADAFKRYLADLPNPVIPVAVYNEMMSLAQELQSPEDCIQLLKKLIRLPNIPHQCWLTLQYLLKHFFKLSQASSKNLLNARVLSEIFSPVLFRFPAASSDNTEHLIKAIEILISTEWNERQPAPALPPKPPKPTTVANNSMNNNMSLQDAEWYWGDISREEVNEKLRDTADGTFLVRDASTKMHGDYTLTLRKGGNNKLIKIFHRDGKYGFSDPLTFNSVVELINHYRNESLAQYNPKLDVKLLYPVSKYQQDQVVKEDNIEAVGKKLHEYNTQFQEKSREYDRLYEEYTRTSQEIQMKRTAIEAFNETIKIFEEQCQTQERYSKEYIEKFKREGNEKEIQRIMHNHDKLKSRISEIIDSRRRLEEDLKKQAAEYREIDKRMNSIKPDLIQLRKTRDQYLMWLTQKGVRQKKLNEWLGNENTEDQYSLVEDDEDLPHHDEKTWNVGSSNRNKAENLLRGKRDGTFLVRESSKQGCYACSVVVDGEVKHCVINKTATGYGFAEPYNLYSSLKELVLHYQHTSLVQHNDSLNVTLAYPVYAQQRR
T1 sequence (P42345 2156-2469): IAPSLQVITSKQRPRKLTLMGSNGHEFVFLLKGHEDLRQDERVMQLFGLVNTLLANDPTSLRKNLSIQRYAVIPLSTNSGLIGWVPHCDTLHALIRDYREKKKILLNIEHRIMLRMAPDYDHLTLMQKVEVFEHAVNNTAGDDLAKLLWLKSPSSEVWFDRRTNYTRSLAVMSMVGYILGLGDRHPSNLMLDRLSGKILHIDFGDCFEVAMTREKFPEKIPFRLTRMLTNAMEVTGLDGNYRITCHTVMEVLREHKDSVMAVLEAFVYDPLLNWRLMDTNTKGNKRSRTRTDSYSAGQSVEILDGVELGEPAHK

In general, Ki refers to the dissociation constant of the complex between target and ligand, obtained from inhibition or displacement. Broadly, the IC50 is the concentration that gives 50% inhibition. Take `CC(C)(C#N)c1ccc(-n2c(=O)[nH]c3cnc4ccc(-c5cnc6ccccc6c5)nc4c32)cc1` [Compound 101, 2-methyl-2-[4-(2-oxo-8-quinolin-3-yl-2,3-dihydro-1H-imidazo[4,5-c]-1,5-naphthyridin-1-yl)phenyl]propanenitrile]: the inhibition constant (Ki) on mTOR [1] is 3.63 nM; at PI3-Kα it was 4.4 nM. For the same molecule, the 50% inhibitory concentration (IC50) in experiment [2] (setting [4]) is 0.00647 µM.

Turning to `Cn1c(=O)n(-c2ccc(C(C)(C)C#N)cc2)c2c3nc(-c4cnc5ccccc5c4)ccc3ncc21` [Compound 102, 2-methyl-2-[4-(3-methyl-2-oxo-8-quinolin-3-yl-2,3-dihydro-1H-imidazo[4,5-c]-1,5-naphthyridin-1-yl)phenyl]propanenitrile], the inhibitory constant (Ki) at mTOR [1] was 3.01 nM; at PI3-Kα, 0.76 nM. The IC50 in experiment [2] (setting [4]) was 0.00354 µM.

For the molecule `O=C(OCc1ccccc1)N1CCC(n2c(=O)[nH]c3cnc4ccc(-c5cnc6ccccc6c5)nc4c32)CC1` [Compound 115, benzyl4-(2-oxo-8-quinolin-3-yl-2,3-dihydro-1H-imidazo[4,5-c][1,5]naphthyridin-1-yl)piperidine-1-carboxylate], the results for the inhibition constant (Ki) on mTOR [1] and on PI3-Kα were 21.5 nM and 7.77 nM, respectively. In experiment [2] (setting [4]), the IC50 was found to be 0.0322 µM.

With `Cn1c(=O)n(C2CCN(C(=O)OCc3ccccc3)CC2)c2c3nc(-c4cnc5ccccc5c4)ccc3ncc21` [Compound 116, benzyl4-(3-methyl-2-oxo-8-quinolin-3-yl-2,3-dihydro-1H-imidazo[4,5-c][1,5]naphthyridin-1-yl)piperidine-1-carboxylate], the inhibitory constant (Ki) amounted to 6.53 nM on mTOR [1] and 2.91 nM at PI3-Kα. The IC50 in experiment [2] (setting [4]) amounted to 0.0134 µM.

On to `Cn1c(=O)n(C2CCNCC2)c2c3nc(-c4cnc5ccccc5c4)ccc3ncc21` [Compound 118, 3-methyl-1-piperidin-4-yl-8-quinolin-3-yl-1,3-dihydro-2H-imidazo[4,5-c][1,5]naphthyridin-2-one], for which the figures for the Ki on mTOR [1] and on PI3-Kα were 13.2 nM and 2.08 nM, respectively.

As for `CC(=O)N1CCC(n2c(=O)n(C)c3cnc4ccc(-c5cnc6ccccc6c5)nc4c32)CC1` [Compound 120, 1-(1-acetylpiperidin-4-yl)-3-methyl-8-quinolin-3-yl-1,3-dihydro-2H-imidazo[4,5-c][1,5]naphthyridin-2-one], the inhibition constant (Ki) on mTOR [1] stood at 5.41 nM; on PI3-Kα it was 0.98 nM. Also, in experiment [2] (setting [4]), the concentration for half-maximal inhibition (IC50) was found to be 0.00459 µM.

Regarding `Cn1c(=O)n([C@H]2CC[C@H](O)CC2)c2c3nc(-c4cnn(CCO)c4)ccc3ncc21` [Compound 164, 1-(trans-4-hydroxycyclohexyl)-8-[1-(2-hydroxyethyl)-1H-pyrazol-4-yl]-3-methyl-1,3-dihydro-2H-imidazo[4,5-c][1,5]naphthyridin-2-one], the Ki was determined as 14 nM on mTOR [1] and 16.2 nM at PI3-Kα. In addition, the IC50 in experiment [2] (setting [5]) was determined as 0.448 µM.

As to `Cc1ccc(-c2ccc3ncc4c(c3n2)n(C2CCN(C(N)=O)CC2)c(=O)n4C)cn1` [Compound 167, 4-[3-methyl-8-(6-methylpyridin-3-yl)-2-oxo-2,3-dihydro-1H-imidazo[4,5-c][1,5]naphthyridin-1-yl]piperidine-1-carboxamide], the Ki at mTOR [1] amounted to 1.28 nM; at PI3-Kα it was 1.93 nM. The half-inhibitory concentration (IC50) in experiment [2] (setting [5]) is 0.112 µM.

Consider `CN(C)c1ccc(-c2ccc3ncc4c(c3n2)n([C@H]2CC[C@H](O)CC2)c(=O)n4C)cn1` [Compound 175, 8-[6-(dimethylamino)pyridin-3-yl]-1-(trans-4-hydroxycyclohexyl)-3-methyl-1,3-dihydro-2H-imidazo[4,5-c][1,5]naphthyridin-2-one], for which the inhibition constant Ki is 1.8 nM on mTOR [1] and 0.666 nM on PI3-Kα. Besides, the IC50 in experiment [2] (setting [5]) amounted to 0.00526 µM.

With `Cc1ccc(-c2ccc3ncc4c(c3n2)n(C2CCNCC2)c(=O)n4C)cn1` [Compound 177, 3-methyl-8-(6-methyl-pyridin-3-yl)-1-piperidin-4-yl-1,3-dihydro-1,3,5,9-tetraaza-cyclopenta[a]naphthalen-2-one], the inhibition constant Ki turned out to be 7.21 nM on mTOR [1] and 2.45 nM on PI3-Kα. Further, the IC50 in experiment [2] (setting [5]) was determined as 0.101 µM.

Consider `CNC(=O)N1CCC(n2c(=O)n(C)c3cnc4ccc(-c5ccc(C)nc5)nc4c32)CC1` [Compound 181, N-methyl-4-[3-methyl-8-(6-methylpyridin-3-yl)-2-oxo-2,3-dihydro-1H-imidazo[4,5-c][1,5]naphthyridin-1-yl]piperidine-1-carboxamide], for which the inhibition constant Ki at mTOR [1] is 1.06 nM; on PI3-Kα, 3.27 nM. Also, the IC50 in experiment [2] (setting [5]) came out at 0.0594 µM.

Consider `COCC(=O)N1CCC(n2c(=O)n(C)c3cnc4ccc(-c5cnc6[nH]ncc6c5)nc4c32)CC1` [Compound 260, 1-[1-(methoxyacetyl)piperidin-4-yl]-3-methyl-8-(1H-pyrazolo[3,4-b]pyridin-5-yl)-1,3-dihydro-2H-imidazo[4,5-c][1,5]naphthyridin-2-one], for which the inhibition constant (Ki) at mTOR [3] turned out to be 0.323 nM. The “PI3Ka Ki” value on PI3-Kα was 0.167 nM. Also, the IC50 in experiment [2] (setting [5]) was found to be 0.0153 µM.

In turn, `Cn1c(=O)n(C2CCN(C(=O)C(C)(C)O)CC2)c2c3nc(-c4cnc5[nH]ncc5c4)ccc3ncc21` [Compound 261, 1-[1-(2-hydroxy-2-methylpropanoyl)piperidin-4-yl]-3-methyl-8-(1H-pyrazolo[3,4-b]pyridin-5-yl)-1,3-dihydro-2H-imidazo[4,5-c][1,5]naphthyridin-2-one] came in with a Ki on mTOR [3] of 0.658 nM. In addition, the “PI3Ka Ki” value at PI3-Kα was 0.114 nM. Besides, the concentration for half-maximal inhibition (IC50) in experiment [2] (setting [5]) is 0.00991 µM.

On to `Cn1c(=O)n(C2CCN(C(=O)CO)CC2)c2c3nc(-c4cnc5[nH]ncc5c4)ccc3ncc21` [Compound 262, 1-(1-glycoloylpiperidin-4-yl)-3-methyl-8-(1H-pyrazolo[3,4-b]pyridin-5-yl)-1,3-dihydro-2H-imidazo[4,5-c][1,5]naphthyridin-2-one], for which the inhibition constant (Ki) at mTOR [3] was 4.06 nM. Also, the “PI3Ka Ki” value at PI3-Kα was 0.32 nM. For the same molecule, in experiment [2] (setting [5]), the IC50 stood at 0.0594 µM.

In the case of `CN1CCC(n2c(=O)n(C)c3cnc4ccc(-c5cnc6[nH]ncc6c5)nc4c32)CC1` [Compound 263, 3-methyl-1-(1-methylpiperidin-4-yl)-8-(1H-pyrazolo[3,4-b]pyridin-5-yl)-1,3-dihydro-2H-imidazo[4,5-c][1,5]naphthyridin-2-one], the affinity at mTOR [3], expressed as Ki, was 5.67 nM. Moreover, the “PI3Ka Ki” value on PI3-Kα was 0.282 nM. In addition, in experiment [2] (setting [5]), the half-inhibitory concentration (IC50) was 0.0218 µM.

The molecule `CCNC(=O)Nc1ccc(-c2ccc3ncc4c(c3n2)n(C2CCN(C(=O)OC(C)(C)C)CC2)c(=O)n4C)cc1` [Compound 265, tert-butyl 4-(8-{4-[(ethylcarbamoyl)amino]phenyl}-3-methyl-2-oxo-2,3-dihydro-1H-imidazo[4,5-c][1,5]naphthyridin-1-yl)piperidine-1-carboxylate] came in with an inhibitory constant (Ki) on mTOR [3] of 14.4 nM. Besides, the “PI3Ka Ki” value at PI3-Kα is 5.02 nM. The concentration for half-maximal inhibition (IC50) in experiment [2] (setting [5]) was 0.0399 µM.

Regarding `COc1ccc(-c2ccc3ncc4c(c3n2)n(CCN2CCNCC2)c(=O)n4C)cn1` [Compound 266, 8-(6-methoxypyridin-3-yl)-3-methyl-1-(2-piperazin-1-ylethyl)-1,3-dihydro-2H-imidazo[4,5-c][1,5]naphthyridin-2-one], the inhibition constant Ki at mTOR [3] worked out at 273 nM. The “PI3Ka Ki” value on PI3-Kα was 7.8 nM. Also, the concentration for half-maximal inhibition (IC50) in experiment [2] (setting [5]) came out at 0.344 µM.

The molecule `Cn1c(=O)n([C@H]2CC[C@H](O)CC2)c2c3nc(-c4ccc5[nH]ncc5c4)ccc3ncc21` [Compound 267, 1-(trans-4-hydroxycyclohexyl)-8-(1H-indazol-5-yl)-3-methyl-1,3-dihydro-2H-imidazo[4,5-c][1,5]naphthyridin-2-one] registered a Ki on mTOR [3] of 0.359 nM. Moreover, the “PI3Ka Ki” value on PI3-Kα was 0.145 nM. Also, the IC50 in experiment [2] (setting [5]) was determined as 0.0205 µM.

Take `COCCn1c(=O)n(C)c2cnc3ccc(-c4ccc(OC)nc4)nc3c21` [Compound 270, 1-(2-methoxyethyl)-8-(6-methoxypyridin-3-yl)-3-methyl-1,3-dihydro-2H-imidazo[4,5-c][1,5]naphthyridin-2-one]: the inhibition constant (Ki) at mTOR [3] was 7.13 nM. Further, at PI3-Kα, the “PI3Ka Ki” value was 13.5 nM. Besides, the IC50 in experiment [2] (setting [5]) was 0.207 µM.

`COc1ccc(-c2ccc3ncc4c(c3n2)n(C2CCN(C(C)=O)CC2)c(=O)n4C)cc1` [Compound 274, 1-(1-acetylpiperidin-4-yl)-8-(4-methoxyphenyl)-3-methyl-1,3-dihydro-2H-imidazo[4,5-c][1,5]naphthyridin-2-one] had a Ki at mTOR [3] of 14.6 nM. Moreover, the “PI3Ka Ki” value at PI3-Kα is 7.71 nM. The IC50 in experiment [2] (setting [5]) was 0.0113 µM.

With `COc1cccc(-c2ccc3ncc4c(c3n2)n(C2CCN(C(=O)[C@H](C)O)CC2)c(=O)n4C)c1` [Compound 275, 1-{1-[(2S)-2-hydroxypropanoyl]piperidin-4-yl}-8-(3-methoxyphenyl)-3-methyl-1,3-dihydro-2H-imidazo[4,5-c][1,5]naphthyridin-2-one], affinity on mTOR [3] was put at a Ki of 8.51 nM. On PI3-Kα, the “PI3Ka Ki” value is 2.01 nM. In addition, in experiment [2] (setting [5]), the IC50 amounted to 0.0344 µM.

The molecule `COc1cccc(-c2ccc3ncc4c(c3n2)n(C2CCN(C(=O)CO)CC2)c(=O)n4C)c1` [Compound 276, 1-(1-glycoloylpiperidin-4-yl)-8-(3-methoxyphenyl)-3-methyl-1,3-dihydro-2H-imidazo[4,5-c][1,5]naphthyridin-2-one] yielded a Ki on mTOR [3] of 10.2 nM. The “PI3Ka Ki” value at PI3-Kα is 2.22 nM. Besides, the IC50 in experiment [2] (setting [5]) was determined as 0.0304 µM.

The molecule `COc1cccc(-c2ccc3ncc4c(c3n2)n(C2CCN(C(C)=O)CC2)c(=O)n4C)c1` [Compound 277, 1-(1-acetylpiperidin-4-yl)-8-(3-methoxyphenyl)-3-methyl-1,3-dihydro-2H-imidazo[4,5-c][1,5]naphthyridin-2-one] displayed a Ki on mTOR [3] of 10.3 nM. The “PI3Ka Ki” value on PI3-Kα was 3.04 nM. The IC50 in experiment [2] (setting [5]) came to 0.0577 µM.
